Test results taken from ChEMBL document CHEMBL3243921, “2-Pyrrolidinylideneureas, a new class of central nervous system agents” (J Med Chem, 1978).
Active and inactive are the calls of the source.

Tests used:
Mus musculus [1] = test: Anticonvulsant activity in po dosed mouse assessed as blockade of supramaximal electroshock-induced […] seizure; format: functional
[2] = Ratio of LD50 for po dosed mouse to PD50 for acute toxicity in po dosed mouse assessed as concentration required to produce 50% loss of righting reflex; format: organism-based; conditions: in vivo
[3] = Therapeutic index, ratio of PD50 for acute toxicity in po dosed mouse assessed as concentration required to produce 50% loss of righting reflex to MED causing antianxiety activity in ip dosed rat assessed as effect on increase in punished responses; format: organism-based; conditions: in vivo, other: oral (PD50, mouse) and intraperitoneal (MED, rat), read-out: TI
Mus musculus [4] = test: Hypotic activity in mouse assessed as increase in pentylenetetrazol-induced persistant-convulsive threshold at 200 mg/kg, po relative to control; format: functional, organism-based; design: dose 200 mg/kg
Mus musculus [5] = test: Sedative activity in mouse assessed as increase in pentylenetetrazol-induced pseudo-convulsive threshold at 25 to 200 mg/kg, po; format: functional, organism-based
Mus musculus [6] = test: Muscle relaxant activity in po dosed mouse assessed as increase in strychnine-induced persistant convulsive threshold; format: functional
[7] = Acute toxicity in po dosed mouse assessed as mortality administered as qd for 6 days measured on day 7 post last dose; format: organism-based; conditions: in vivo
Mus musculus [8] = test: Acute toxicity in po dosed mouse assessed as concentration required to produce 50% loss of righting reflex administered as qd for 4 days measured for 1 min post last dose; format: organism-based; conditions: in vivo
Mus musculus [9] = test: Sedative activity in mouse assessed as increase in pentylenetetrazol-induced pseudo-convulsive threshold at 100 mg/kg, po; format: functional, organism-based; design: dose 100 mg/kg
Mus musculus [10] = test: Muscle relaxant activity in po dosed mouse assessed as blockade of pentylenetetrazol-induced tonic extensor seizure; format: functional
Mus musculus [11] = test: Sedative activity in mouse assessed as increase in pentylenetetrazol-induced pseudo-convulsive threshold at 200 mg/kg, po relative to control; format: functional
Rattus norvegicus [12] = test: Antianxiety activity in ip dosed rat assessed as effect on increase in punished responses administered qd for 5 days measured every day for 5 days; format: functional; conditions: 120 h, read-out: MED
Mus musculus [13] = test: Sedative-hypnotic activity in mouse assessed as increase in pentylenetetrazol-induced pseudo/persistent-convulsive threshold at 50 to 200 mg/kg, po; format: functional, organism-based
Mus musculus [14] = test: Sedative activity in mouse assessed as increase in pentylenetetrazol-induced pseudo-convulsive threshold at 25 mg/kg, po relative to control; format: functional
Mus musculus [15] = test: Hypnotic activity in mouse assessed as increase in pentylenetetrazol-induced persistent-convulsive threshold at 50 mg/kg, po relative to control; format: functional
Mus musculus [16] = test: Sedative activity in mouse assessed as increase in pentylenetetrazol-induced pseudo-convulsive threshold at 50 mg/kg, po relative to control; format: functional
Mus musculus [17] = test: Blockade of pentylenetetrazol-induced lethality in mouse at 40 mg/kg, po; format: functional, organism-based; design: dose 40 mg/kg
Mus musculus [18] = test: Muscle relaxant activity in mouse assessed as blockade of pentylenetetrazol-induced tonic extensor seizure at 40 mg/kg, po; format: functional, organism-based; design: dose 40 mg/kg
Rattus norvegicus [19] = test: Antianxiety activity in rat assessed as effect on increase in punished responses at 25 mg/kg, ip qd administered for 5 days measured every day for 5 days; format: functional, organism-based; design: dose 25 mg/kg
[20] = Therapeutic index, ratio of PD50 for acute toxicity in po dosed mouse assessed as concentration required to produce 50% loss of righting reflex to MED20 for muscle relaxant activity in po dosed mouse assessed as blockade of pentylenetetrazol-induced tonic extensor seizure; format: organism-based; conditions: in vivo, read-out: TI
[21] = Therapeutic index, ratio of PD50 for acute toxicity in po dosed mouse assessed as concentration required to produce 50% loss of righting reflex to MED20 for anticonvulsant activity in po dosed mouse assessed as blockade of supramaximal electroshock-induced […] seizure; format: organism-based; conditions: in vivo, read-out: TI
[22] = Therapeutic index, ratio of PD50 for acute toxicity in po dosed mouse assessed as concentration required to produce 50% loss of righting reflex to MED25 for muscle relaxant activity in po dosed mouse assessed as increase in strychnine-induced persistant convulsive threshold; format: organism-based; conditions: in vivo, read-out: TI
Mus musculus [23] = test: Sedative-hypnotic activity in mouse assessed as increase in pentylenetetrazol-induced pseudo/persistent-convulsive threshold at 1 to 5 mg/kg, po; format: functional, organism-based
Mus musculus [24] = test: Potency index, ratio of methocarbamol MED20 to compound MED20 for anticonvulsant activity in po dosed mouse assessed as blockade of supramaximal electroshock-induced […] seizure; format: functional
Mus musculus [25] = test: Potency index, ratio of chlorzoxazone MED20 to compound MED20 for anticonvulsant activity in po dosed mouse assessed as blockade of supramaximal electroshock-induced […] seizure; format: functional
Mus musculus [26] = test: Hypnotic activity in mouse assessed as increase in pentylenetetrazol-induced persistent-convulsive threshold up to 200 mg/kg, po; format: functional, organism-based; design: dose 200 mg/kg
Mus musculus [27] = test: Potency index, ratio of chlorzoxazone MED20 to compound MED20 for muscle relaxant activity in po dosed mouse assessed as blockade of pentylenetetrazol-induced tonic extensor seizure; format: functional
Mus musculus [28] = test: Sedative activity in mouse assessed as increase in pentylenetetrazol-induced pseudo-convulsive threshold up to 200 mg/kg, po; format: functional, organism-based; design: dose 200 mg/kg
Mus musculus [29] = test: Potency index, ratio of methocarbamol MED20 to compound MED20 for muscle relaxant activity in po dosed mouse assessed as blockade of pentylenetetrazol-induced tonic extensor seizure; format: functional
Mus musculus [30] = test: Blockade of pentylenetetrazol-induced lethality in mouse assessed as delay in occurrence of death time up to 200 mg/kg, po; format: functional

| Compound | MED20 (Mus musculus [1]) | selectivity ratio [2] | selectivity ratio [3] | MED25 (Mus musculus [6]) | LD50 at 144 h [7] | PD50 (Mus musculus [8]) | MED20 (Mus musculus [10]) | minimal effective dose (Rattus norvegicus [12]) | further results |
| --- | --- | --- | --- | --- | --- | --- | --- | --- | --- |
| CN1CCC/C1=N\C(=O)Nc1cccc(Cl)c1 | 142 mg/kg | 1.6 | 63 | 50 mg/kg | 1500 mg/kg | 950 mg/kg | 32 mg/kg | 15 mg/kg | Activity (Mus musculus [4]): inactive; Activity (Mus musculus [5]): Active; Activity (Mus musculus [9]): inactive; Activity (Mus musculus [11]): 50% |
| CN1CCC/C1=N\C(=O)Nc1ccc([N+](=O)[O-])cc1 | >200 mg/kg | 1 | 80 | >200 mg/kg | 1310 mg/kg | 1200 mg/kg | 100 mg/kg | 15 mg/kg | Activity (Mus musculus [13]): Active; Activity (Mus musculus [5]): Active; Activity (Mus musculus [14]): 25%; Activity (Mus musculus [15]): 45%; Activity (Mus musculus [16]): 73% |
| CNC1=Nc2ccc(Cl)cc2C(c2ccccc2)=[N+]([O-])C1 [CHLORDIAZEPOXIDE] | 71 mg/kg | 1.5 | 260 | 10 mg/kg | 990 mg/kg | 680 mg/kg | 1.5 mg/kg | 2.5 mg/kg | Activity (Mus musculus [17]): Active; Activity (Mus musculus [18]): Active |
| CCCCCCCCCCCCNC(=O)/N=C1\CCCN1 | – | – | – | – | – | – | – | – | Activity (Rattus norvegicus [19]): Active |
| COc1ccccc1OCC(O)COC(N)=O (stereo unspecified) [METHOCARBAMOL] | 120 mg/kg | 1.9 | – | 310 mg/kg | 2000 mg/kg | 1050 mg/kg | 150 mg/kg | > 25 mg/kg | selectivity ratio [20]: 7; selectivity ratio [21]: 8.7; selectivity ratio [22]: 3.4 |
| CN1C(=O)CN=C(c2ccccc2)c2cc(Cl)ccc21 [DIAZEPAM] | 15 mg/kg | – | – | 0.17 mg/kg | – | – | 0.1 mg/kg | 0.5 mg/kg | Activity (Mus musculus [23]): Active |
| Cc1cccc(Cl)c1NC(=O)/N=C1\CCCN1C | 43 mg/kg | 1.9 | – | 52 mg/kg | 449 mg/kg | 232 mg/kg | 28 mg/kg | > 25 mg/kg | Ratio (Mus musculus [24]): 3; Ratio (Mus musculus [25]): 3; Activity (Mus musculus [26]): inactive; Ratio (Mus musculus [27]): 4; Activity (Mus musculus [28]): inactive; Ratio (Mus musculus [29]): 4; selectivity ratio [22]: 4.5; Time (Mus musculus [30]): 1 min |
